{"source": "patent US20230064983A1", "about": "(priority 2020, published 2023)", "key": {"[1]": {"target": "T1, EGFR with insertion SVD between D770 and N771 (mutEGFR D770_N771insSVD) (Homo sapiens, UniProt P00533, DUP768-770)", "T1 construct": "amino acids R669 to A1210; made in house; host or cells: Sf9 insect cells (baculovirus)", "T1 sequence (P00533 other isoform, or with tags, fused parts or gaps DUP768-770)": "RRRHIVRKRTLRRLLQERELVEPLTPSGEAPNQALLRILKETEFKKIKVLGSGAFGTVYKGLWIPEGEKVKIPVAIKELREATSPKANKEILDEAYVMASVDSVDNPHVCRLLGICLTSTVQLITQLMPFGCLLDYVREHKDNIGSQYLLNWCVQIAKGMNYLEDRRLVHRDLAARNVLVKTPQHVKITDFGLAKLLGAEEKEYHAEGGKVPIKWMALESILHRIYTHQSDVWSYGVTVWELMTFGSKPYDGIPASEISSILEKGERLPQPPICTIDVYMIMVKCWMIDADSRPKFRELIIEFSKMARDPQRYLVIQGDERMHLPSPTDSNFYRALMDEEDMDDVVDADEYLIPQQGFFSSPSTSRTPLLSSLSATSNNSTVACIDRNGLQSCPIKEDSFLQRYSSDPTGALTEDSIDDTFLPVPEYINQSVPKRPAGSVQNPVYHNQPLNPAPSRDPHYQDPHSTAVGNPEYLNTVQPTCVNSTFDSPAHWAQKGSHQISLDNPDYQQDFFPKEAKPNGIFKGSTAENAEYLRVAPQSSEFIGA", "test": "Exon20-Mutant-EGFR(D770_N771insSVD) kinase assay (TR-FRET)", "assay_type": "biochemical", "conditions": "2 mM ATP, Table 2"}, "Bub1": {"target": "T2, Bub1 (Homo sapiens, UniProt O43683)", "T2 construct": "catalytic domain of human Bub1 (amino acids 704-1085); His6 (N); made in house; host or cells: insect cells (Hi5)", "T2 sequence (O43683 704-1085)": "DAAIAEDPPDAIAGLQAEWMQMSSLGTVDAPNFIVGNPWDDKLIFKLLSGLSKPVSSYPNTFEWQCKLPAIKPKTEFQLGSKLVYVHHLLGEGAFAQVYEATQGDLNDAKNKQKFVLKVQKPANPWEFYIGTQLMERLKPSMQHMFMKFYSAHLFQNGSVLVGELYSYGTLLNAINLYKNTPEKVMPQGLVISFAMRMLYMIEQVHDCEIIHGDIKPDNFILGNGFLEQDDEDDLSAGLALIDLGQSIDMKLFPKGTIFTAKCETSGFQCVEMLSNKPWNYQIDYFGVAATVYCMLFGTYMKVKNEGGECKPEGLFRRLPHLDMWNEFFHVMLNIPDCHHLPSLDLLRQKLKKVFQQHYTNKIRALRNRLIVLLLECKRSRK", "test": "Bub1 high ATP kinase assay (TR-FRET)", "assay_type": "biochemical", "conditions": "2 mM ATP, Table 3", "outline": "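Read-out was the 665/620 nm TR-FRET ratio after 1 h at 22 °C with EDTA stop mix (streptavidin-XL665, anti-phosphoserine antibody, Eu anti-mouse IgG). Beforehand, a biotinylated peptide was phosphorylated for 60 min at 22 °C under high ATP by His6-tagged human Bub1 residues 704-1085 expressed in Hi5 cells, about 200 ng/ml.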"}, "[2]": {"target": "Ba/F3-EGFR-D770_N771insSVD cells (Homo sapiens, UniProt P00533, DUP768-770, cells depend on it)", "sequence (P00533 with tags, fused parts or gaps DUP768-770)": "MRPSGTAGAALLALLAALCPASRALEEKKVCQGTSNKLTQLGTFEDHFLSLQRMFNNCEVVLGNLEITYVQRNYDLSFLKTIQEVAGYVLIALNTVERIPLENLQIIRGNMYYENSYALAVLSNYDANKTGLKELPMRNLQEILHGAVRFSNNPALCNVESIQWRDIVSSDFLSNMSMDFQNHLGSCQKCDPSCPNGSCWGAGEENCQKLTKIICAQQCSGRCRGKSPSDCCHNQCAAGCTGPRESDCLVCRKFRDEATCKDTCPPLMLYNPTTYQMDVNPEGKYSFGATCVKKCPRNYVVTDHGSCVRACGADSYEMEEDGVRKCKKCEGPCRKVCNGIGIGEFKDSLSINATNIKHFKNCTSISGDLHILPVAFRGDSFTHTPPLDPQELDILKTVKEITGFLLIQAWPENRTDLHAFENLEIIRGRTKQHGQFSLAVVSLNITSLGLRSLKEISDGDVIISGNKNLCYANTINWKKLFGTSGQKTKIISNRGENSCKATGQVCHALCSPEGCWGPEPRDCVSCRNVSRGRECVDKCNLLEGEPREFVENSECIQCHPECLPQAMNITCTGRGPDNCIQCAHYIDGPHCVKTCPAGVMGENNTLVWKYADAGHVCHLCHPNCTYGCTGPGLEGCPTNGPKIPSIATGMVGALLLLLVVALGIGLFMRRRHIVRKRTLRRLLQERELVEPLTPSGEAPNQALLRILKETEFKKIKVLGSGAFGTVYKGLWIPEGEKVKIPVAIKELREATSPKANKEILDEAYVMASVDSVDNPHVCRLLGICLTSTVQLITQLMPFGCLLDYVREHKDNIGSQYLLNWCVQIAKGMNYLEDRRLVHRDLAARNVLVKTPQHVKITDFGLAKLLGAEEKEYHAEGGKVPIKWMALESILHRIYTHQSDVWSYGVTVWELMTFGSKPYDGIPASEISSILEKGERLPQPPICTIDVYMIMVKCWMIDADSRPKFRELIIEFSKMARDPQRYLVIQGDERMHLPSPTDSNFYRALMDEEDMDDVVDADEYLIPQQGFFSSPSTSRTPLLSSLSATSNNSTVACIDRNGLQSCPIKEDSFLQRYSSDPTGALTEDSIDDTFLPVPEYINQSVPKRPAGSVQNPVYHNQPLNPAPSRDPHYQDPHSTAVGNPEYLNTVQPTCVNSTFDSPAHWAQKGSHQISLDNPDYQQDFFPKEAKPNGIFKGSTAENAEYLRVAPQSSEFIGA", "test": "Ba/F3 cell survival assay, EGFR D770_N771insSVD", "assay_type": "cell-based", "conditions": "Cell Titer-Glo, 48 h, without IL-3; Table 4; read-out: BA/F3 (insSVD) IC50"}, "Ba/F3-EGFR-WT cells": {"target": "Ba/F3-EGFR-WT cells (Homo sapiens, UniProt P00533)", "sequence (P00533 whole entry, looked up, change not shown)": "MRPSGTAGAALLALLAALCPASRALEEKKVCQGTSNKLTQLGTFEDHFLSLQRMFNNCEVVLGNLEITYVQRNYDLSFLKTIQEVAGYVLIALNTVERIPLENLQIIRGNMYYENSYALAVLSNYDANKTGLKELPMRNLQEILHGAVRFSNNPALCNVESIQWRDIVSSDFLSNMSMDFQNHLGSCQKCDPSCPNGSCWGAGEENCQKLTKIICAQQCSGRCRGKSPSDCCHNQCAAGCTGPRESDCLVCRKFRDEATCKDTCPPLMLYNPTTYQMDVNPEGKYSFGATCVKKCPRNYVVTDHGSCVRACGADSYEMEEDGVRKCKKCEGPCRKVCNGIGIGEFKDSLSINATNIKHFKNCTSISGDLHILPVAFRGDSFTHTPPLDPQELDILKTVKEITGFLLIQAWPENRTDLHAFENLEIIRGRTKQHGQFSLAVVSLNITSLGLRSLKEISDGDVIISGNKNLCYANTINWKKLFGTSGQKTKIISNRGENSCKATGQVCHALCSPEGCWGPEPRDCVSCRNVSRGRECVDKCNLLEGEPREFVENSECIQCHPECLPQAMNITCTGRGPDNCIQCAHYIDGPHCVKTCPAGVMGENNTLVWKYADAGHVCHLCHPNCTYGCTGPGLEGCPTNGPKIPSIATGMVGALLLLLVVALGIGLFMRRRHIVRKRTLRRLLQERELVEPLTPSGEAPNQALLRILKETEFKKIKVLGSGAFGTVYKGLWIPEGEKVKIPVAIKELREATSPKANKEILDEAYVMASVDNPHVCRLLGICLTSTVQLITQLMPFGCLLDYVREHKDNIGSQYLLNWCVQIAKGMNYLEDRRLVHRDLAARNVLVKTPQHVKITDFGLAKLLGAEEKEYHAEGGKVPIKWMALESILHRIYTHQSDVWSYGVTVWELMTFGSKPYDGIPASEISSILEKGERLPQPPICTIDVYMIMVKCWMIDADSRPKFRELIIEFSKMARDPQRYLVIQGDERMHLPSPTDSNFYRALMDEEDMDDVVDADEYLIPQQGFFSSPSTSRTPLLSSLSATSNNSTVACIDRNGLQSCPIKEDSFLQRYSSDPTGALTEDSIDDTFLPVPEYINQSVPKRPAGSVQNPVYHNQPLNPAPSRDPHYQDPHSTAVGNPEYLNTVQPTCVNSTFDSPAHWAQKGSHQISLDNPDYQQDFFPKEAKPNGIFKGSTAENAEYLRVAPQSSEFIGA", "test": "Ba/F3 cell survival assay, wild type EGFR", "assay_type": "cell-based", "conditions": "Cell Titer-Glo, 48 h, with 10 ng/mL EGF; Table 4; read-out: BA/F3 (wild type) IC50"}, "[3]": {"conditions": "Bub1 high ATP (2 mM) IC50, TR-FRET"}}, "note": "Several values for one entry are separate records, joined by “and”; a condition that tells them apart may be missing. Equal values may be shown once. Read-outs that look alike come from different tables or passages of the source."}
{"smiles": "COc1c(Cl)cccc1Nc1c(-c2ccncc2OCC2CCCCN2C)[nH]c2c1C(=O)N[C@H](C)C2", "note": "(single isomer, unassigned) [Example 85]", "values": [{"measurement": "mutEGFR (D770_N771insSVD) kinase assay IC50", "setting": "[1]", "value": 0.948, "unit": "nM"}, {"measurement": "IC50", "setting": "Bub1; read-out: Bub1 high ATP (2 mM) IC50, TR-FRET", "value": "> 20000", "unit": "nM"}, {"measurement": "GI50", "setting": "[2]", "value": 103, "unit": "nM"}, {"measurement": "GI50", "setting": "Ba/F3-EGFR-WT cells", "value": 1170, "unit": "nM"}]}
{"smiles": "COc1c(Cl)cccc1Nc1c(-c2ccncc2OC[C@@H]2CCO2)[nH]c2c1C(=O)N[C@@H](C)C2", "note": "[Example 7, (6S)-3-(3-chloro-2-methoxyanilino)-6-methyl-2-(3-{[(2S)-oxetan-2-yl]methoxy}pyridin-4-yl)-1,5,6,7-tetrahydro-4H-pyrrolo[3,2-c]pyridin-4-one]", "values": [{"measurement": "mutEGFR (D770_N771insSVD) kinase assay IC50", "setting": "[1]", "value": "0.0854 nM and <0.0725 nM"}, {"measurement": "IC50", "setting": "Bub1; [3]", "value": "> 20000", "unit": "nM"}, {"measurement": "GI50", "setting": "[2]", "value": 25.7, "unit": "nM"}, {"measurement": "GI50", "setting": "Ba/F3-EGFR-WT cells", "value": 384, "unit": "nM"}]}
{"smiles": "COc1c(Cl)cccc1Nc1c(-c2ccncc2OCC2CCCCO2)[nH]c2c1C(=O)NCC2C", "note": "(single isomer, unassigned) [Example 45, 3-(3-chloro-2-methoxy-anilino)-7-methyl-2-[3-(tetrahydropyran-2-ylmethoxy)-4-pyridyl]-1,5,6,7-tetrahydropyrrolo[3,2-c]pyridin-4-one]", "values": [{"measurement": "mutEGFR (D770_N771insSVD) kinase assay IC50", "setting": "[1]", "value": 0.391, "unit": "nM"}, {"measurement": "IC50", "setting": "Bub1; [3]", "value": "> 20000", "unit": "nM"}, {"measurement": "GI50", "setting": "[2]", "value": 47.3, "unit": "nM"}, {"measurement": "GI50", "setting": "Ba/F3-EGFR-WT cells", "value": 840, "unit": "nM"}]}
